This experiment has as its target T1, NPR-B (Homo sapiens, UniProt P20594).
T1 construct: a functional assay using endogenously NPR-B expressing GTM-3 cells; endogenous in cells; host or cells: GTM-3 (human glaucoma trabecular meshwork cells)
T1 sequence (P20594 23-1047): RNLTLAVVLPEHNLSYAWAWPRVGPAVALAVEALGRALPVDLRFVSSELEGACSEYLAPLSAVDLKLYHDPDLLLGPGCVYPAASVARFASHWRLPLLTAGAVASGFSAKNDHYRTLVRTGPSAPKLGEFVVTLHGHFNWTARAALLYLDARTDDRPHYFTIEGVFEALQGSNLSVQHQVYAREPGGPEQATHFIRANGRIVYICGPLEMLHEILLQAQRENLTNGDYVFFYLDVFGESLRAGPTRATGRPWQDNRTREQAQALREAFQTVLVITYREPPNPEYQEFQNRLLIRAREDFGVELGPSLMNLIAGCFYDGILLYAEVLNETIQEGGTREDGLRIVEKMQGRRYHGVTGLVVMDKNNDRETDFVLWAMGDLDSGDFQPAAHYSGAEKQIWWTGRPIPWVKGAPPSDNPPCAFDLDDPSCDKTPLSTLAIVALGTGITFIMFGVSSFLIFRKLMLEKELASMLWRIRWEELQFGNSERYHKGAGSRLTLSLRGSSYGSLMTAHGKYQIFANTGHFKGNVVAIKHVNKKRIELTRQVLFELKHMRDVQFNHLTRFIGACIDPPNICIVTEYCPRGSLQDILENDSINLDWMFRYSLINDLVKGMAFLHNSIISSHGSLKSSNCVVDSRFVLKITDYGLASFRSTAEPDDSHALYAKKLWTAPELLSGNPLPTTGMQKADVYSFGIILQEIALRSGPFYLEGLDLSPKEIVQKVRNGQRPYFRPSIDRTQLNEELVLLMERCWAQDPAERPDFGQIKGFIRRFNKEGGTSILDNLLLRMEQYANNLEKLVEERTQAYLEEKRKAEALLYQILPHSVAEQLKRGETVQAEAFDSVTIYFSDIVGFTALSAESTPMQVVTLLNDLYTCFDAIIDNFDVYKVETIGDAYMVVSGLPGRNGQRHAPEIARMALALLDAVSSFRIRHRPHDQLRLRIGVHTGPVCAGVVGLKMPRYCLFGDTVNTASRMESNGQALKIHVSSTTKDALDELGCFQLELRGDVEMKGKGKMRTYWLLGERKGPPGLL
As to the kind of experiment: NPR-B induced production of cyclic GMP in human glaucoma trabecular meshwork cells (GTM-3). The class given is cell-based. The conditions noted are these: group by EC50 and Emax (CNP = 100%); Table 4; read-out: Activity (group), NPR-B activation assayed with GTM-3 cells.

Numbered stars: 1 amine (or outer) side, 2 acyl side, 3 side chain; on linkers, the order of the positions; unused ones are H or OH. Square brackets hold non-standard residues; d marks the D form. Peptide text beside a SMILES is read from it. * marks the point of attachment. Phe(3-CF3) = N[C@@H](Cc1cccc(C(F)(F)F)c1)C(=O)O; Phe(3-Cl) = N[C@@H](Cc1cccc(Cl)c1)C(=O)O; Phe(4-Br) = N[C@@H](Cc1ccc(Br)cc1)C(=O)O; Pro(4R-NH2) = N[C@H]1CN[C@H](C(=O)O)C1; Gly(cPent) = N[C@H](C(=O)O)C1CCCC1; X2 = O=C([C@H]1CCCN([*:1])C1)[*:2]; dDap(Me2) = CN(C)C[C@@H](N)C(=O)O; Hyp = O=C(O)[C@@H]1C[C@@H](O)CN1; 3Thi = N[C@@H](Cc1ccsc1)C(=O)O; NHcycloheptyl = C1CCCC(N*)CC1; NMeL = CN[C@@H](CC(C)C)C(=O)O; Nle = CCCC[C@H](N)C(=O)O; Octanoyl = CCCCCCCC(=O)*; Thz = O=C(O)[C@@H]1CSCN1; Api = NC1(C(=O)O)CCNCC1; tBu = CC(C)(C)*

Turning to `CCCCCCCC(=O)N1CCC[C@H](C(=O)N[C@@H](Cc2ccccc2)C(=O)NC2(C(=O)N[C@@H](CC(C)C)C(=O)N3C[C@H](N)C[C@H]3C(=O)N(C)[C@@H](CC(C)C)C(=O)N[C@@H](CC(=O)O)C(=O)N3CCC[C@H]3C(=O)NC3CCCCCC3)CCNCC2)C1` [JAL-1602, Occ-Sni-Phe-Apc-Leu-Tap-Nml-Asp-Pro-Che] (Octanoyl-[X2]F[Api]L[Pro(4R-NH2)][NMeL]DP-NHcycloheptyl), the EC50 is less than 1000 nM.

Regarding `CCCCCCCC(=O)N1CCC[C@H](C(=O)N[C@@H](Cc2ccccc2)C(=O)N[C@H](CN(C)C)C(=O)N[C@@H](CC(C)C)C(=O)N2C[C@H](N)C[C@H]2C(=O)N(C)[C@@H](CC(C)C)C(=O)N[C@@H](CC(=O)O)C(=O)N2CCC[C@H]2C(=O)NC2CCCCCC2)C1` [JAL-1603, Occ-Sni-Phe-dap(Me2)-Leu-Tap-Nml-Asp-Pro-Che] (Octanoyl-[X2]F[dDap(Me2)]L[Pro(4R-NH2)][NMeL]DP-NHcycloheptyl), the EC50 is less than 1000 nM.

Consider `CCCCCCCC(=O)N1CCC[C@H](C(=O)N[C@@H](Cc2ccccc2)C(=O)N[C@H](CN(C)C)C(=O)N[C@@H](CC(C)C)C(=O)N2C[C@H](O)C[C@H]2C(=O)N(C)[C@@H](CC(C)C)C(=O)N[C@@H](CC(=O)O)C(=O)N2CCC[C@H]2C(=O)NC2CCCCCC2)C1` [JAL-1604, Occ-Sni-Phe-dap(Me2)-Leu-Hyp-Nml-Asp-Pro-Che] (Octanoyl-[X2]F[dDap(Me2)]L[Hyp][NMeL]DP-NHcycloheptyl), for which the EC50 is less than 1000 nM.

Turning to `CC[C@H](C)[C@H](NC(=O)[C@H](CCCNC(=N)N)NC(=O)[C@H](CC(=O)O)NC(=O)[C@H](CC(C)C)N(C)C(=O)[C@@H]1C[C@@H](O)CN1C(=O)[C@H](CC(C)C)NC(=O)[C@@H](CC(C)C)NC(=O)[C@H](Cc1ccccc1)NC(=O)[C@H]1CCCN(C(=O)CCCc2ccccc2)C1)C(N)=O` [JAL-1605, 1319-Sni-Phe-leu-Leu-Hyp-Nml-Asp-Arg-Ile-NH2] (HELM PEPTIDE1{[O=C(CCCc1ccccc1)[*:2]].[O=C([C@H]1CCCN([*:1])C1)[*:2]].F.[dL].L.[Hyp].[meL].D.R.I.[am]}$$$$V2.0), the EC50 was less than 1000 nM.

Regarding `CC[C@H](C)[C@H](NC(=O)[C@H](CCCNC(=N)N)NC(=O)[C@H](CC(=O)O)NC(=O)[C@H](CC(C)C)N(C)C(=O)[C@@H]1C[C@@H](O)CN1C(=O)[C@H](CC(C)C)NC(=O)[C@@H](CC(C)C)NC(=O)[C@H](Cc1ccccc1)NC(=O)[C@H]1CCCN(C(=O)CCCCc2ccccc2)C1)C(N)=O` [JAL-1606, 1320-Sni-Phe-leu-Leu-Hyp-Nml-Asp-Arg-Ile-NH2] (HELM PEPTIDE1{[O=C(CCCCc1ccccc1)[*:2]].[O=C([C@H]1CCCN([*:1])C1)[*:2]].F.[dL].L.[Hyp].[meL].D.R.I.[am]}$$$$V2.0), the EC50 is less than 1000 nM.

As for `CCCCCCCC(=O)N1CCC[C@H](C(=O)N[C@@H](Cc2cccc(Cl)c2)C(=O)N[C@H](CC(C)C)C(=O)N[C@@H](CC(C)C)C(=O)N2C[C@H](O)C[C@H]2C(=O)N(C)[C@@H](CC(C)C)C(=O)N[C@@H](CC(=O)O)C(=O)N[C@@H](CCCNC(=N)N)C(=O)N[C@H](C(N)=O)[C@@H](C)CC)C1` [JAL-1618, Occ-Sni-Mcf-leu-Leu-Hyp-Nml-Asp-Arg-Ile-NH2] (Octanoyl-[X2][Phe(3-Cl)][dL]L[Hyp][NMeL]DRI-NH2), the EC50 is less than 1000 nM.

Turning to `CCCCCCCC(=O)N1CCC[C@H](C(=O)N[C@@H](Cc2ccc(Br)cc2)C(=O)N[C@H](CC(C)C)C(=O)N[C@@H](CC(C)C)C(=O)N2C[C@H](O)C[C@H]2C(=O)N(C)[C@@H](CC(C)C)C(=O)N[C@@H](CC(=O)O)C(=O)N[C@@H](CCCNC(=N)N)C(=O)N[C@H](C(N)=O)[C@@H](C)CC)C1` [JAL-1619, Occ-Sni-Pbf-leu-Leu-Hyp-Nml-Asp-Arg-Ile-NH2] (Octanoyl-[X2][Phe(4-Br)][dL]L[Hyp][NMeL]DRI-NH2), the EC50 was less than 1000 nM.

In the case of `CCCCCCCC(=O)N1CCC[C@H](C(=O)N[C@@H](Cc2ccsc2)C(=O)N[C@H](CC(C)C)C(=O)N[C@@H](CC(C)C)C(=O)N2C[C@H](O)C[C@H]2C(=O)N(C)[C@@H](CC(C)C)C(=O)N[C@@H](CC(=O)O)C(=O)N[C@@H](CCCNC(=N)N)C(=O)N[C@H](C(N)=O)[C@@H](C)CC)C1` [JAL-1620, Occ-Sni-Thk-leu-Leu-Hyp-Nml-Asp-Arg-Ile-NH2] (Octanoyl-[X2][3Thi][dL]L[Hyp][NMeL]DRI-NH2), the EC50 is less than 1000 nM.

On to `CCCCCCCC(=O)N1CCC[C@H](C(=O)N[C@@H](Cc2cccc(C(F)(F)F)c2)C(=O)N[C@H](CC(C)C)C(=O)N[C@@H](CC(C)C)C(=O)N2C[C@H](O)C[C@H]2C(=O)N(C)[C@@H](CC(C)C)C(=O)N[C@@H](CC(=O)O)C(=O)N[C@@H](CCCNC(=N)N)C(=O)N[C@H](C(N)=O)[C@@H](C)CC)C1` [JAL-1621, Occ-Sni-Mtf-leu-Leu-Hyp-Nml-Asp-Arg-Ile-NH2] (Octanoyl-[X2][Phe(3-CF3)][dL]L[Hyp][NMeL]DRI-NH2), for which the EC50 is less than 1000 nM.

As for `CCCCCCCC(=O)N1CCC[C@H](C(=O)N[C@@H](Cc2ccccc2)C(=O)N[C@H](CSC(C)(C)C)C(=O)N[C@@H](CC(C)C)C(=O)N2C[C@H](O)C[C@H]2C(=O)N(C)[C@@H](CC(C)C)C(=O)N[C@@H](CC(=O)O)C(=O)N[C@@H](CCCNC(=N)N)C(=O)N[C@H](C(N)=O)[C@@H](C)CC)C1` [JAL-1623, Occ-Sni-Phe-ctb-Leu-Hyp-Nml-Asp-Arg-Ile-NH2] (Octanoyl-[X2]F[dC](tBu)L[Hyp][NMeL]DRI-NH2), the EC50 was less than 1000 nM.

In the case of `CCCCCCCC(=O)N1CCC[C@H](C(=O)N[C@@H](Cc2ccccc2)C(=O)N[C@H](CC(C)C)C(=O)N[C@@H](CCCC)C(=O)N2C[C@H](O)C[C@H]2C(=O)N(C)[C@@H](CC(C)C)C(=O)N[C@@H](CC(=O)O)C(=O)N[C@@H](CCCNC(=N)N)C(=O)N[C@H](C(N)=O)[C@@H](C)CC)C1` [JAL-1624, Occ-Sni-Phe-leu-Nle-Hyp-Nml-Asp-Arg-Ile-NH2] (HELM PEPTIDE1{[CCCCCCCC(=O)[*:2]].[O=C([C@H]1CCCN([*:1])C1)[*:2]].F.[dL].[Nle].[Hyp].[meL].D.R.I.[am]}$$$$V2.0), the EC50 is less than 1000 nM.

With `CCCCCCCC(=O)N1CCC[C@H](C(=O)N[C@@H](Cc2ccccc2)C(=O)N[C@H](CC(C)C)C(=O)N[C@@H](CC(C)C)C(=O)N2C[C@H](O)C[C@H]2C(=O)N[C@H](C(=O)N[C@@H](CC(=O)O)C(=O)N[C@@H](CCCNC(=N)N)C(=O)N[C@H](C(N)=O)[C@@H](C)CC)[C@@H](C)CC)C1` [JAL-1625, Occ-Sni-Phe-leu-Leu-Hyp-Ile-Asp-Arg-Ile-NH2] (HELM PEPTIDE1{[CCCCCCCC(=O)[*:2]].[O=C([C@H]1CCCN([*:1])C1)[*:2]].F.[dL].L.[Hyp].I.D.R.I.[am]}$$$$V2.0), the EC50 is less than 1000 nM.

With `CCCCCCCC(=O)N1CCC[C@H](C(=O)N[C@@H](Cc2ccccc2)C(=O)N[C@H](CC(C)C)C(=O)N[C@@H](CC(C)C)C(=O)N2C[C@H](O)C[C@H]2C(=O)N[C@H](C(=O)N[C@@H](CC(=O)O)C(=O)N[C@@H](CCCNC(=N)N)C(=O)N[C@H](C(N)=O)[C@@H](C)CC)C2CCCC2)C1` [JAL-1626, Occ-Sni-Phe-leu-Leu-Hyp-Cpg-Asp-Arg-Ile-NH2] (Octanoyl-[X2]F[dL]L[Hyp][Gly(cPent)]DRI-NH2), the EC50 was less than 1000 nM.

On to `CCCCCCCC(=O)N1CCC[C@H](C(=O)N[C@@H](Cc2ccccc2)C(=O)N[C@H](CC(C)C)C(=O)N[C@@H](CC(C)C)C(=O)N2C[C@H](O)C[C@H]2C(=O)N(C)[C@@H](CC(C)C)C(=O)N[C@@H](CC(=O)O)C(=O)N2CSC[C@H]2C(=O)NC2CCCCCC2)C1` [JAL-1638, Occ-Sni-Phe-leu-Leu-Hyp-Nml-Asp-Eaz-Che] (Octanoyl-[X2]F[dL]L[Hyp][NMeL]D[Thz]-NHcycloheptyl), for which the EC50 is less than 1000 nM.

On to `CCCCCCCC(=O)N1CCC[C@H](C(=O)N[C@@H](Cc2ccccc2)C(=O)N[C@H](CC(C)C)C(=O)N[C@@H](CCCC)C(=O)N2C[C@H](O)C[C@H]2C(=O)N(C)[C@@H](CC(C)C)C(=O)N[C@@H](CC(=O)O)C(=O)N2CCC[C@H]2C(=O)NC2CCCCCC2)C1` [JAL-1657, Occ-Sni-Phe-leu-Nle-Hyp-Nml-Asp-Pro-Che] (Octanoyl-[X2]F[dL][Nle][Hyp][NMeL]DP-NHcycloheptyl), for which the EC50 was less than 1000 nM.

Regarding `CCCCCCCCCC(=O)N1CCC[C@H](C(=O)N[C@@H](Cc2ccccc2)C(=O)N[C@H](CC(C)C)C(=O)N[C@@H](CC(C)C)C(=O)N2C[C@H](O)C[C@H]2C(=O)N(C)[C@@H](CC(C)C)C(=O)N[C@@H](CC(=O)O)C(=O)N[C@@H](CCCNC(=N)N)C(=O)N[C@H](C(N)=O)[C@@H](C)CC)C1` [JAL-1666, 5587-Sni-Phe-leu-Leu-Hyp-Nml-Asp-Arg-Ile-NH2] (HELM PEPTIDE1{[CCCCCCCCCC(=O)[*:2]].[O=C([C@H]1CCCN([*:1])C1)[*:2]].F.[dL].L.[Hyp].[meL].D.R.I.[am]}$$$$V2.0), the EC50 was less than 1000 nM.

For the origin of these results see patent US9822147B2, “Methods of treating ophthalmic diseases using NPR-B agonists” (priority 2009, dated 2017).
